For nine compounds, MIC results are on record in DBAASP.

Structures are written as SMILES. Converted amounts (≈) assume the structure as drawn.

Among the test systems are Escherichia coli; Salmonella sp.; Yersinia enterocolitica; Escherichia coli K-12; Leuconostoc lactis; Streptococcus uberis; Escherichia coli D31; Escherichia coli BL21AI.
Experiment in all cases: ≥ marks a high value that may be exact or a test limit, other limits are often not marked, values filed in µg/mL are converted to µM
Experiment [1] has as its system Bacillus subtilis KCTC 3068.
Experiment [2] relates to Candida albicans KCTC 7965.
The test system of experiment [3] is Escherichia coli KCTC 1682.
Experiment [4] relates to Pseudomonas aeruginosa KCTC 1637.
In experiment [5] the test system is Salmonella typhimurium KCTC 1926.
The subject of experiment [6] is Staphylococcus aureus KCTC 1621.
In experiment [7] the test system is Staphylococcus epidermidis KCTC 1917.
Experiment [8] has as its system Escherichia coli ATCC 25922.
Experiment [9] concerns Pseudomonas aeruginosa ATCC 27853.
Experiment [10] has as its system Salmonella enterica subsp. enterica serovar Enteritidis.
The test system of experiment [11] is Staphylococcus aureus ATCC 29213.
Experiment [12] deals with Staphylococcus aureus ATCC 43300.
For experiment [13], the system named is Staphylococcus aureus USA 300.
The subject of experiment [14] is Lactococcus lactis subsp. cremoris I116.
Experiment [15] relates to Staphylococcus aureus CIP 677.
Experiment [16] has as its system Klebsiella pneumoniae K6 ATCC 700603.
Experiment [17] has as its system Salmonella enterica subsp. enterica serovar Typhimurium ATCC 700408.
The test system of experiment [18] is Candida albicans ATCC 200955.
Experiment [19] concerns Enterococcus faecium ATCC 700221.
The test system of experiment [20] is Staphylococcus aureus ATCC 25923.
Experiment [21] deals with Staphylococcus aureus ATCC 33591.
In experiment [22] the test system is Micrococcus luteus ATCC 10240.
The subject of experiment [23] is Escherichia coli DH5alpha.
The test system of experiment [24] is Micrococcus luteus ATCC 4698.
For experiment [25], the system named is Staphylococcus aureus ATCC 6538.
For experiment [26], the system named is Staphylococcus epidermidis ATCC 12228.

As to `CC(C)C[C@H](NC(=O)[C@H](Cc1ccccc1)NC(=O)CNC(=O)[C@H](Cc1c[nH]c2ccccc12)NC(=O)[C@H](Cc1c[nH]c2ccccc12)NC(=O)[C@H](Cc1c[nH]c2ccccc12)NC(=O)CNC(=O)[C@H](Cc1ccccc1)NC(=O)[C@H](CCCN=C(N)N)NC(=O)[C@H](CCCN=C(N)N)NC(=O)[C@@H](N)C(C)C)C(=O)N[C@@H](CCCN=C(N)N)C(=O)N[C@@H](CCCN=C(N)N)C(=O)O` [VRRFGWWWGFLRR], the MIC (usually the smallest concentration in the dilution series that meets the test's criterion for growth inhibition) was 8.78 µM (≈ 16 µg/mL) in [1]; 17.6 µM (≈ 32 µg/mL) in [2]; 17.6 µM (≈ 32 µg/mL) in experiment [3]; not below 35.1 µM in experiment [4]; 17.6 µM (≈ 32 µg/mL) in experiment [5]; 8.78 µM (≈ 16 µg/mL) in experiment [6]. The same compound registered an MIC in experiment [7] of 4.39 µM (≈ 8 µg/mL).
As to `NCCCC[C@H](NC(=O)[C@H](CCCCN)NC(=O)[C@H](Cc1ccccc1)NC(=O)[C@H](CCCCN)NC(=O)[C@H](CCCN=C(N)N)NC(=O)[C@H](CCCN=C(N)N)NC(=O)[C@H](Cc1ccccc1)NC(=O)[C@H](CCCCN)NC(=O)[C@@H](N)CCCN=C(N)N)C(N)=O` [RKFRRKFKK], the MIC in experiment [8] was more than 50 µM; against Escherichia coli, more than 50 µM; in experiment [9] it was more than 50 µM; in experiment [10], not below 50 µM; against Salmonella sp., not below 50 µM; in experiment [11], more than 50 µM. For the same compound, the results for the MIC (in experiment [12]; against Yersinia enterocolitica) were more than 50 µM and not below 50 µM, respectively.
With `CC(C)C[C@H](NC(=O)CN)C(=O)N[C@@H](C)C(=O)N[C@@H](CC(=O)O)C(=O)N[C@@H](Cc1ccccc1)C(=O)N[C@@H](CC(C)C)C(=O)N[C@@H](CC(N)=O)C(=O)N[C@@H](CCCCN)C(=O)N[C@@H](C)C(=O)N[C@H](C(=O)NCC(=O)N[C@@H](CCCCN)C(=O)N[C@H](C(=O)N[C@H](C(=O)N[C@@H](CC(=O)O)C(=O)N[C@@H](Cc1ccccc1)C(=O)N[C@H](C(=O)N[C@@H](CCCCN)C(=O)N[C@@H](CO)C(N)=O)C(C)C)C(C)C)C(C)C)C(C)C` [GLADFLNKAVGKVVDFVKS], the minimal inhibitory concentration (MIC) was not below 100 µM against Escherichia coli K-12, 25 µM (≈ 50.2 µg/mL) against Leuconostoc lactis, not below 100 µM in experiment [13] and not below 50 µM against Streptococcus uberis.
For the compound `CC[C@H](C)[C@H](NC(=O)CN)C(=O)N[C@@H](Cc1c[nH]c2ccccc12)C(=O)NCC(=O)N[C@H](C(=O)N[C@@H](CC(C)C)C(=O)N[C@@H](C)C(=O)N[C@@H](CCCCN)C(=O)N[C@H](C(=O)NCC(=O)N[C@H](C(=O)N[C@@H](CCCCN)C(=O)N[C@@H](C)C(=O)N[C@H](C(=O)N1CCC[C@H]1C(=O)N[C@@H](CCCN=C(N)N)C(=O)N[C@H](C(=O)N[C@H](C(=O)N[C@@H](CO)C(=O)N[C@@H](CCSC)C(=O)N[C@@H](CC(C)C)C(=O)N[C@@H](CCCCN)C(=O)N[C@@H](CCCCN)C(=O)N[C@@H](CCCCN)C(=O)N[C@@H](CCC(N)=O)C(=O)O)[C@@H](C)CC)C(C)C)C(C)C)[C@@H](C)CC)[C@@H](C)CC)[C@@H](C)O` [GIWGTLAKIGIKAVPRVISMLKKKQ], the MIC in experiment [14] was found to be 4 µM (≈ 10.9 µg/mL); in experiment [15], 8 µM (≈ 21.9 µg/mL).
For the compound `CC[C@H](C)[C@H](NC(=O)[C@H](Cc1ccc(O)cc1)NC(=O)[C@@H](NC(=O)[C@@H]1CCCN1C(=O)[C@H](CCCN=C(N)N)NC(=O)[C@H](CC(N)=O)NC(=O)[C@H](CC(N)=O)NC(=O)CN)C(C)C)C(=O)N1CCC[C@H]1C(=O)N[C@@H](CCC(N)=O)C(=O)N1CCC[C@H]1C(=O)N[C@@H](CCCN=C(N)N)C(=O)N1CCC[C@H]1C(=O)N1CCC[C@H]1C(=O)N[C@@H](Cc1cnc[nH]1)C(=O)N1CCC[C@H]1C(=O)N[C@@H](CCCN=C(N)N)C(=O)N[C@@H](Cc1ccccc1)C(N)=O` [GNNRPVYIPQPRPPHPRF], the minimal inhibitory concentration (MIC) was not below 59.7 µM against Escherichia coli D31, 29.9 µM (≈ 64 µg/mL) in experiment [16] and 1.87 µM (≈ 4 µg/mL) in experiment [17].
Consider `CC[C@H](C)[C@H](NC(=O)[C@H](CCCN=C(N)N)NC(=O)[C@H](CCCCN)NC(=O)[C@H](CC(C)C)NC(=O)[C@H](CC(C)C)NC(=O)CN)C(=O)N[C@@H](CCCCN)C(=O)N[C@@H](CCCCN)C(=O)N[C@@H](CC(C)C)C(=O)N[C@@H](CC(C)C)C(N)=O` [GLLKRIKKLL], for which the MIC in [18] was not below 85.3 µM; in [19], not below 66.3 µM; in experiment [9] it was 28.4 µM (≈ 33.5 µg/mL); in experiment [20], 4.23 µM (≈ 5 µg/mL); in experiment [21], not below 256 µM.
Take `CC[C@H](C)[C@H](NC(=O)[C@H](Cc1ccc(O)cc1)NC(=O)[C@@H](NC(=O)[C@@H]1CCCN1C(=O)[C@H](CCCN=C(N)N)NC(=O)[C@H](CC(N)=O)NC(=O)[C@H](CC(N)=O)NC(=O)CN)C(C)C)C(=O)N[C@@H](C)C(=O)N[C@@H](CCC(N)=O)C(=O)N1CCC[C@H]1C(=O)N[C@@H](CCCN=C(N)N)C(=O)N1CCC[C@H]1C(=O)N1CCC[C@H]1C(=O)N[C@@H](Cc1cnc[nH]1)C(=O)N1CCC[C@H]1C(=O)N[C@@H](CCCN=C(N)N)C(=O)N[C@@H](CC(C)C)C(N)=O` [GNNRPVYIAQPRPPHPRL]: the MIC (against Escherichia coli BL21AI; in experiment [22]) was not below 60 µM in each case.
`CC(C)C[C@H](NC(=O)[C@H](CC(C)C)NC(=O)[C@H](CCCCN)NC(=O)[C@H](CO)NC(=O)[C@H](CC(C)C)NC(=O)[C@H](C)NC(=O)[C@H](CCCCN)NC(=O)[C@H](Cc1ccccc1)NC(=O)[C@H](CC(C)C)NC(=O)[C@H](C)NC(=O)[C@H](CCCCN)NC(=O)[C@H](CC(C)C)NC(=O)[C@@H](N)Cc1ccccc1)C(=O)O` [FLKALFKALSKLL]: the MIC in [23] came out at 16.8 µM (≈ 25 µg/mL); in [24], 2.68 µM (≈ 4 µg/mL); in [25], 4.02 µM (≈ 6 µg/mL); in [26], 6.7 µM (≈ 10 µg/mL).
Taken in the same sequence, the figures for `CC(C)C[C@H](NC(=O)[C@H](CC(C)C)NC(=O)[C@H](CCCCN)NC(=O)[C@H](CO)NC(=O)[C@H](CC(C)C)NC(=O)[C@H](C)NC(=O)[C@H](CCCCN)NC(=O)[C@H](Cc1ccccc1)NC(=O)[C@@H](NC(=O)[C@H](C)NC(=O)CNC(=O)[C@H](CC(C)C)NC(=O)[C@@H](N)Cc1ccccc1)C(C)C)C(=O)O` [FLGAVFKALSKLL] were 21.3 µM (≈ 30 µg/mL), 4.27 µM (≈ 6 µg/mL), 7.82 µM (≈ 11 µg/mL) and 12.8 µM (≈ 18 µg/mL).
